According to patent publication US9902703B2, “Somatostatin modulators and uses thereof” (Crinetics Pharmaceuticals, Inc., priority 2015, dated 2018):
pEC50: −log10 of the molar value.

Biological target: T1, human somatostatin receptor subtype 2 (Homo sapiens, UniProt P30874)
T1 construct: expressed in transfected cells; host or cells: CHO (Chinese hamster ovary) cells, G-418 selected
Assay: cAMP assay (functional assay for SSTR2 agonists)
Format: cell-based
Conditions: CHO cells expressing human SSTR2; intracellular cAMP with forskolin, HTRF; read-out: SSTR2a EC50
Source text: Functional Assay for SSTR2 Agonists
General overview: All five SSTR subtypes are Gi coupled G-protein coupled receptors (GPCRs) that lead to decreases in intracellular cyclic AMP (cAMP) when activated by an agonist. Therefore, measurement of intracellular cAMP levels can be used to assess whether compounds of the invention are agonists of SSTR subtypes (John Kelly, Troy Stevens, W. Joseph Thompson, and Roland Seifert, Current Protocols in Pharmacology, 2005, 2.2.1-2.2). One example of an intracellular cAMP assay is described below.
One day prior to the assay, 40,000 Chinese hamster ovary (CHO) cells expressing the human somatostatin receptor subtype 2 are plated in each well of a 96-well tissue culture plate in DM-MEM growth media (Gibco) with the following additives: 10% fetal bovine serum (Gibco), 100 U/mL penicillin (Gibco), 100 ug/mL streptomycin (Gibco), 10 mM HEPES (Gibco), 1.2 mM sodium hydroxide, 0.5 mg/mL G-418 (Gibco)). The cells are cultured overnight at 37° C., 5% CO2 and 95% humidity. On the day of the assay, the media is aspirated and the cells are washed with 1× Dulbecco's phosphate buffered saline (Gibco). Next, 5 μL of assay buffer (1× Earle's Balanced Salt Solution (Gibco), 5 mM MgCl2, 10 mM HEPES, 0.1% bovine serum albumin, 0.2 mM 3-Isobutyl-1-methylxanthine (IBMX, Biomol Research Labs)) and forskolin is added. Various dilutions of the compounds of the invention are prepared in assay buffer and 5 μL of the dilutions are added to the cultured cells and incubated for 15 minutes at 37° C. […] 10 μL of lysis buffer (HRTF cAMP kit, Cisbio) containing cAMP detection and visualization antibodies are added and the assay is allowed incubate for 1-24 hours at room temperature. The intracellular cAMP concentrations are then measured using a commercially available detection kit (for example, the cAMP HTRF kit, Cisbio). The measured intracellular cAMP concentrations are plotted vs. the concentration of the compounds of the invention and the EC50 of the compounds are calculated using standard methods.

T1 sequence (P30874 whole entry): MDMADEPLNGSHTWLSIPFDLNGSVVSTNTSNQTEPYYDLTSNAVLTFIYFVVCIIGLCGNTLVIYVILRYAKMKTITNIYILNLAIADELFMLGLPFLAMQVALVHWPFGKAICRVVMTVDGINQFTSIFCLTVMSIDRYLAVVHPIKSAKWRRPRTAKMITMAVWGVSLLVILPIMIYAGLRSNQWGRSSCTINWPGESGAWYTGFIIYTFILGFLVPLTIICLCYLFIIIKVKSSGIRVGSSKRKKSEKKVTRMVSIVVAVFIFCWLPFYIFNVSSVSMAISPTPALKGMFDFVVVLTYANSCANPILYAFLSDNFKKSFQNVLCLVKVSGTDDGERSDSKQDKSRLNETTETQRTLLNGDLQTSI

Row | SMILES | pEC50
1 | Cc1cc(Cl)cc(N2C=Nc3cc(C)c(-c4cc(C(N)=O)ccn4)cc3C2C(=O)N(C)C[C@@H]2CCCN2)c1 (stereo partly drawn) [Compound 2-14, 6-(4-carbamoylpyridin-2-yl)-3-(3-chloro-5-methylphenyl)-N,7-dimethyl-N-[(2S)-pyrrolidin-2-ylmethyl]-3,4-dihydroquinazoline-4-carboxamide] | 6.00 to 7.00
2 | Cc1cc(Cl)cc(N2C=Nc3cc(C)c(-c4ccncc4Cl)cc3C2C(=O)N(C)C[C@@H]2CCCN2)c1 (stereo partly drawn) [Compound 2-26, 3-(3-chloro-5-methylphenyl)-6-(3-chloropyridin-4-yl)-N,7-dimethyl-N-[(2S)-pyrrolidin-2-ylmethyl]-3,4-dihydroquinazoline-4-carboxamide] | 6.00 to 7.00
3 | Cc1cc(Cl)cc(N2C=Nc3cc(C)c(-c4ccccc4)cc3C2C(=O)N(C)C[C@@H]2CCCN2)c1 (stereo partly drawn) [Compound 1-32, 3-(3-chloro-5-methylphenyl)-N,7-dimethyl-6-phenyl-N-[(2S)-pyrrolidin-2-ylmethyl]-3,4-dihydroquinazoline-4-carboxamide] | > 7.00
4 | Cc1cc(Cl)cc(N2C=Nc3cc(C)c(-c4ccc5[nH]c(=O)[nH]c5c4)cc3C2C(=O)N(C)C[C@@H]2CCCN2)c1 (stereo partly drawn) [Compound 2-34, 3-(3-chloro-5-methylphenyl)-N,7-dimethyl-6-(2-oxo-2,3-dihydro-1H-1,3-benzodiazol-5-yl)-N-[(2S)-pyrrolidin-2-ylmethyl]-3,4-dihydroquinazoline-4-carboxamide] | > 7.00
5 | CCOC(=O)Cc1cccc(-c2cc3c(cc2C)N=CN(c2cc(C)cc(Cl)c2)C3C(=O)N(C)C[C@@H]2CCCN2)c1 (stereo partly drawn) [Compound 1-49, ethyl 2-{3-[3-(3-chloro-5-methylphenyl)-7-methyl-4-{methyl[(2S)-pyrrolidin-2-ylmethyl]carbamoyl}-3,4-dihydroquinazolin-6-yl]phenyl}acetate] | 6.00 to 7.00
6 | Cc1cc(Cl)cc(N2C=Nc3ccc(-c4cc(O)ccc4Cl)cc3C2C(=O)N(C)C[C@@H]2CCCN2)c1 (stereo partly drawn) [Compound 1-30, 6-(2-chloro-5-hydroxyphenyl)-3-(3-chloro-5-methylphenyl)-N-methyl-N-[(2S)-pyrrolidin-2-ylmethyl]-3,4-dihydroquinazoline-4-carboxamide] | > 7.00
7 | COc1cc(-c2cc3c(cc2C)N=CN(c2cc(C)cc(Cl)c2)C3C(=O)N(C)C[C@@H]2CCCN2)ccc1C (stereo partly drawn) [Compound 2-16, 3-(3-chloro-5-methylphenyl)-6-(3-methoxy-4-methylphenyl)-N,7-dimethyl-N-[(2S)-pyrrolidin-2-ylmethyl]-3,4-dihydroquinazoline-4-carboxamide] | > 7.00
8 | Cc1cc(C)cc(N2C=Nc3ccc(-c4cccc(O)c4)cc3C2C(=O)N(C)C[C@H](C)N)c1 (stereo partly drawn) [Compound 1-1, N-[(2S)-2-aminopropyl]-3-(3,5-dimethylphenyl)-6-(3-hydroxyphenyl)-N-methyl-3,4-dihydroquinazoline-4-carboxamide] | 6.00 to 7.00
9 | CC[C@H](N)CN(C)C(=O)C1c2cc(-c3cccc(O)c3)c(Cl)cc2N=CN1c1cc(C)cc(C)c1 (stereo partly drawn) [Compound 1-5, N-[(2S)-2-aminobutyl]-7-chloro-3-(3,5-dimethylphenyl)-6-(3-hydroxyphenyl)-N-methyl-3,4-dihydroquinazoline-4-carboxamide] | > 7.00
10 | Cc1cc(Cl)cc(N2C=Nc3ccc(-c4cccc(O)c4Cl)cc3C2C(=O)N(C)C[C@@H]2CCCN2)c1 (stereo partly drawn) [Compound 1-29, 6-(2-chloro-3-hydroxyphenyl)-3-(3-chloro-5-methylphenyl)-N-methyl-N-[(2S)-pyrrolidin-2-ylmethyl]-3,4-dihydroquinazoline-4-carboxamide] | > 7.00
11 | COc1cccc(-c2cc3c(cc2C)N=CN(c2cc(C)cc(Cl)c2)C3C(=O)N(C)C[C@@H]2CCCN2)c1C#N (stereo partly drawn) [Compound 2-30, 3-(3-chloro-5-methylphenyl)-6-(2-cyano-3-methoxyphenyl)-N,7-dimethyl-N-[(2S)-pyrrolidin-2-ylmethyl]-3,4-dihydroquinazoline-4-carboxamide] | > 7.00
12 | Cc1cc(Cl)cc(N2C=Nc3ccc(-c4cc(O)cc(F)c4)cc3C2C(=O)N(C)C[C@@H]2CCCN2)c1 (stereo partly drawn) [Compound 1-50, 3-(3-chloro-5-methylphenyl)-6-(3-fluoro-5-hydroxyphenyl)-N-methyl-N-[(2S)-pyrrolidin-2-ylmethyl]-3,4-dihydroquinazoline-4-carboxamide] | > 7.00
13 | Cc1cc(C)cc(N2C=Nc3cc(Cl)c(-c4cccc(O)c4)cc3C2C(=O)N(C)C[C@H](C)N)c1 (stereo partly drawn) [Compound 1-4, N-[(2S)-2-aminopropyl]-7-chloro-3-(3,5-dimethylphenyl)-6-(3-hydroxyphenyl)-N-methyl-3,4-dihydroquinazoline-4-carboxamide] | > 7.00
14 | Cc1cc(C)cc(N2C=Nc3ccc(-c4cccc(O)c4)cc3C2C(=O)N(C)CCN)c1 (stereo not drawn) [Compound 1-2, N-(2-aminoethyl)-3-(3,5-dimethylphenyl)-6-(3-hydroxyphenyl)-N-methyl-3,4-dihydroquinazoline-4-carboxamide] | 6.00 to 7.00

Results, then the compound that gave them:

Row | pEC50 | SMILES
15 | > 7.00 | Cc1cc(Cl)cc(N2C=Nc3cc(C)c(-c4cc(C#N)cc(C(F)(F)F)c4)cc3C2C(=O)N(C)C[C@@H]2CCCN2)c1 (stereo partly drawn) [Compound 1-42, 3-(3-chloro-5-methylphenyl)-6-[3-cyano-5-(trifluoromethyl)phenyl]-N,7-dimethyl-N-[(2S)-pyrrolidin-2-ylmethyl]-3,4-dihydroquinazoline-4-carboxamide]
16 | > 7.00 | Cc1cc(Cl)cc(N2C=Nc3cc(C)c(-c4cc(Cl)cc(C5(C#N)CC5)c4)cc3C2C(=O)N(C)C[C@@H]2CCCN2)c1 (stereo partly drawn) [Compound 2-17, 6-[3-chloro-5-(1-cyanocyclopropyl)phenyl]-3-(3-chloro-5-methylphenyl)-N,7-dimethyl-N-[(2S)-pyrrolidin-2-ylmethyl]-3,4-dihydroquinazoline-4-carboxamide]
17 | 6.00 to 7.00 | Cc1cc(Cl)cc(N2C=Nc3cc(C)c(-c4cnn(C)c4)cc3C2C(=O)N(C)C[C@@H]2CCCN2)c1 (stereo partly drawn) [Compound 2-1, 3-(3-chloro-5-methylphenyl)-N,7-dimethyl-6-(1-methyl-1H-pyrazol-4-yl)-N-[(2S)-pyrrolidin-2-ylmethyl]-3,4-dihydroquinazoline-4-carboxamide]
18 | > 7.00 | Cc1cc(Cl)cc(N2C=Nc3cc(C)c(-c4cccc(O)c4)cc3C2C(=O)N(C)C[C@H]2CCCN2)c1 (stereo partly drawn) [Compound 1-18, 3-(3-chloro-5-methylphenyl)-6-(3-hydroxyphenyl)-N,7-dimethyl-N-[(2R)-pyrrolidin-2-ylmethyl]-3,4-dihydroquinazoline-4-carboxamide]
19 | > 7.00 | Cc1cc(Cl)cc(N2C=Nc3cc(C)c(-c4cc(F)cc(F)c4)cc3C2C(=O)N(C)C[C@@H]2CCCN2)c1 (stereo partly drawn) [Compound 1-40, 3-(3-chloro-5-methylphenyl)-6-(3,5-difluorophenyl)-N,7-dimethyl-N-[(2S)-pyrrolidin-2-ylmethyl]-3,4-dihydroquinazoline-4-carboxamide]
20 | > 7.00 | Cc1cc(Cl)cc(N2C=Nc3cc(C)c(-c4cc(C#N)ccc4Cl)cc3C2C(=O)N(C)C[C@@H]2CCCN2)c1 (stereo partly drawn) [Compound 1-37, 6-(2-chloro-5-cyanophenyl)-3-(3-chloro-5-methylphenyl)-N,7-dimethyl-N-[(2S)-pyrrolidin-2-ylmethyl]-3,4-dihydroquinazoline-4-carboxamide]
21 | > 7.00 | Cc1cc(Cl)cc(N2C=Nc3cc(C)c(-c4cc(F)cc(C(F)(F)F)c4)cc3C2C(=O)N(C)C[C@@H]2CCCN2)c1 (stereo partly drawn) [Compound 2-20, 3-(3-chloro-5-methylphenyl)-6-[3-fluoro-5-(trifluoromethyl)phenyl]-N,7-dimethyl-N-[(2S)-pyrrolidin-2-ylmethyl]-3,4-dihydroquinazoline-4-carboxamide]
22 | > 7.00 | COc1cc(C)cc(-c2cc3c(cc2C)N=CN(c2cc(C)cc(Cl)c2)C3C(=O)N(C)C[C@@H]2CCCN2)c1 (stereo partly drawn) [Compound 2-15, 3-(3-chloro-5-methylphenyl)-6-(3-methoxy-5-methylphenyl)-N,7-dimethyl-N-[(2S)-pyrrolidin-2-ylmethyl]-3,4-dihydroquinazoline-4-carboxamide]
23 | > 7.00 | Cc1cc(Cl)cc(N2C=Nc3cc(C)c(-c4cncc(C#N)c4)cc3C2C(=O)N(C)C[C@@H]2CCCN2)c1 (stereo partly drawn) [Compound 2-18, 3-(3-chloro-5-methylphenyl)-6-(5-cyanopyridin-3-yl)-N,7-dimethyl-N-[(2S)-pyrrolidin-2-ylmethyl]-3,4-dihydroquinazoline-4-carboxamide]
24 | > 7.00 | COc1cc(F)cc(-c2cc3c(cc2C)N=CN(c2cc(C)cc(Cl)c2)C3C(=O)N(C)C[C@@H]2CCCN2)c1 (stereo partly drawn) [Compound 2-35, 3-(3-chloro-5-methylphenyl)-6-(3-fluoro-5-methoxyphenyl)-N,7-dimethyl-N-[(2S)-pyrrolidin-2-ylmethyl]-3,4-dihydroquinazoline-4-carboxamide]
